From patent US11214835B1, “Methods and compositions for diagnosis and management of neurodegerative diseases” (UNIVERSITY OF SOUTH FLORIDA, priority 2017, dated 2022)

Key:
GAS5 [1] = assay: GAS5 levels in DM adipocytes by SYBR Green qPCR; format: cell-based, human; details: 20 nM, 24 hours
Method: DM adipocytes were treated with G5-1397 (20 nM) for about 24 hours. GAS5 levels were measured using SYBR Green qPCR.
Depletion of GAS5 decreases glucose uptake: Adipose tissue is the primary target for insulin-mediated glucose uptake. […] To maintain reproducibility over a larger number of experiments, adipose stem cells derived from normal or diabetic patients were purchased from Zenbio (BMI 20-24, Nondiabetic HbA1C 5.9 (hereafter referred as NDM); T2DM HbA1c 8.5 (hereafter referred as DM)). The adipose stem cells (ASC) were differentiated in vitro to mature adipocytes and used in experiments. GAS5 siRNA (10 nM, Ambion 332778, validated; scrambled siRNA as control) was transfected in NDM pre-adipocytes for 48 h, differentiated to mature NDM adipocytes for 8 days and knockdown confirmed by GAS5 SYBR Green qPCR. We determined the effect of GAS5 depletion on glucose uptake by NDM adipocytes. Cells were serum starved, 10 nM insulin was added to cells for 30 minutes and [^3H]-deoxy-2-D-Glucose uptake was measured. Results indicated a decrease in glucose uptake in GAS5 depleted NDM adipocytes ***p<0.001, highly significant using two-tailed students t-test.
Compound NPG5-C86 can increase GAS5 levels in diabetic adipocytes: Next, it was evaluated whether NPG5-C86 could stabilize GAS5 in diabetic adipocytes. […] GAS5 levels were measured using SYBR Green qPCR.

GAS5 [2] = assay: Uptake and GAS5 levels in primary neuronal cells (NC) by qPCR; format: cell-based, mouse; details: 10 nM
neuronal cells = assay: WST-1 cellular toxicity assay (Roche); format: cell-based
GAS5 [3] = assay: GAS5 stabilization in HT22 cells over-expressing UPF1, SYBR Green qPCR; format: cell-based, mouse; details: pre-treated 10 nM for 1 hour, then UPF1 transfection for 24 hours
Method: As the compound(s) were designed to bind to GAS5 such that it would disrupt binding to UPF1, the compound(s) ability to bind to GAS5 was examined. RNA-EMSA (REMSA) was performed as previously described. Briefly, GAS5 was cloned in TOPO vector which has the T7 promoter. In vitro transcription assay was performed with biotin-label using RiboScribe kit using T7 RNA polymerase at 37° C. for 2 h in the presence of nucleotides, RNase inhibitor, and 5× transcription buffer. 0.1 nM of transcribed, biotin-labeled GAS5 was incubated with 10 nM NPG567 in presence of 10U yeast tRNA and 10 units of RNase inhibitor in a final volume of 10 μl of RNA shift buffer for 20 min at room temperature, detected using Biotin Chromogenic Detection kit (ThermoFisher). […] Next, it was evaluated whether NPG567 could stabilize GAS5 in HT22 cells over-expressing UPF1 (from Addgene). UPF1 was transiently transfected for 24 h (UPF oe) or pre-treated with NPG567 (10 nM) for 1 hour followed by transfection of UPF1 for 24 hours. GAS5 levels were measured using SYBR Green qPCR. […]
Methods in brief: Cell culture: Immortalized clonal mouse hippocampal cell line (HT22) (obtained from Salk Institute) and cultured in DMEM+10% FBS. […] The cells are checked for viability and counted and plated into T-25 flasks in neurobasal media with B27 supplement. […]

GAS5 [4] = assay: Hippocampal GAS5 levels after intranasal administration to C57BL/6 mice; format: in vivo, mouse; details: 10 nM in 10 μl, about 48 h
Text: Separately, NPG567 or other compounds can be administered by intranasal delivery (APP/PS1 beginning at either 6 months of age (preventive) or 12 months of age (therapeutic); dose repeated alternate days; Tg4510 beginning at either 3 months of age (preventive) or 8 months of age (therapeutic); alternate days. See FIG. 25B for a schematic of the experimental protocol. The treatment efficacy for the two modes of delivery at timeframes as shown in FIGS. 25A and 25B and described herein. Intranasal delivery is a noninvasive method that bypasses the blood-brain barrier and delivers the drug to the brain and the spinal cord, thereby avoiding any systemic side effects. […] Brain tissue was harvested after about 48 h.

NEAT1, MALAT1 = assay: Levels of other lncRNAs in neurons by qPCR (specificity); format: cell-based, mouse

SMILES	GAS5 levels in DM adipocytes (GAS5 [1])	uptake by NC (GAS5 [2]; primary neuronal cells)	GAS5 levels in NC (GAS5 [2]; qPCR, control set as reference)	cellular toxicity (neuronal cells; WST-1 assay (Roche))	toxicity to cells (neuronal cells; in neurons)	GAS5 levels with UPF1 over-expression (GAS5 [3])	GAS5 levels in the hippocampus (GAS5 [4])	levels of other lncRNAs NEAT1, MALAT1 present in neurons (NEAT1, MALAT1; 10 nM, NC)	specificity (NEAT1, MALAT1; in neurons)
CC(C)C[C@H]1CN(C(=O)CC2CC2)CC(=O)N[C@@H](CCCCN)CN(C(=O)CCc2ccccc2)CC(=O)N[C@@H](Cc2ccccc2)CN(CC(N)=O)C(=O)CCSCc2ccc(cc2)C(=O)N[C@@H](Cc2ccccc2)CN(C(=O)CC2CC2)CC(=O)N1 [Formula G5-1397]	substantially increases GAS5 levels								
NCCCC[C@H]1CN(C(=O)CCc2ccccc2)CC(=O)N[C@@H](CCC(=O)O)CN(CC(N)=O)C(=O)CCSCc2ccc(cc2)C(=O)N[C@@H](CCC(=O)O)CN(C(=O)CCC(=O)O)CC(=O)N[C@@H](CCCCN)CN(C(=O)CCCN)CC(=O)N1 [NPG567]		efficiently taken up by NC	increase GAS5	does not cause cellular toxicity	not toxic to cells	increases GAS5 levels	increased GAS5 levels in the hippocampus	did not affect	shows specificity
